Assay results taken from patent US4259332A, “Novel taurine derivatives” (priority 1979, dated 1981).
Like-named read-outs stand apart in the source and are kept apart here.

Key:
[1] = assay type: in vivo, rat; details: fasted rats, oral, 225 mg/Kg acetylsalicylic acid
Protocol: Rats which had not been fed for 24 hours were used. The AST product was administered orally as the acid or the sodium salt at a dosage of 335 mg/Kg suspended in 1% carboxymethylcellulose. […] Both the methods of treatment and the observation time were identical for the 3 groups of animals.

[2] = Analgesic activity: convulsions produced by phenylquinone; assay type: in vivo, mouse; details: oral, ASA 200, AST 300 mg/Kg
Protocol: (A) Test of convulsions produced by phenylquinone injected into mice by the intraperitoneal route. The AST product was administered orally both in the acid form (AST Ac). and as the sodium salt (AST Na). It was compared with a molar equivalent dosage of acetylsalicylic acid and with a carboxymethylcellulose placebo. The convulsions were induced at varying intervals from the oral treatment counting from the first 20 minutes after the injection of phenylquinone.

[3] = Analgesic activity: mechanical pressure test on inflamed rat's paw; assay type: in vivo; details: oral, ASA 200, AST 300 mg/Kg
Protocol: (B) Mechanical pressure test on inflamed rat's paw. The AST product was administered both in the acid and sodium salt form by the oral method. It was compared with a molar equivalent dosage of acetylsalicylic acid and with a carboxymethylcellulose placebo. The inflammation of the paw was induced by a local injection of yeast simultaneously with the oral treatment with the drugs and the tenderness was measured in grams of mechanical pressure required to cause a reaction in the animal.

[4] = Edema resulting from yeast in the paw of the rat; assay type: in vivo; details: oral, ASA 200, AST 300 mg/Kg
Protocol: (A) Edema resulting from yeast in the paw of the rat. The AST product was administered orally both in the acid and sodium salt form. It was compared with a molar equivalent dose of acetylsalicylic acid and with carboxymethylcellulose placebo. The edema of the paw was induced with a local injection of the yeast simultaneously with the oral treatment with the drugs, and the volume of the paw was measured in hundredths of milliliter.

[5] = Edema as a result of nystatin in the rat's paw; assay type: in vivo; details: p.o.
Protocol: (B) Edema as a result of nystatin in the rat's paw. The long duration of this type of edema enabled the animals to be repeatedly treated in order to ascertain the presence if any of the protracted effect of the AST product also using parenteral administration. The comparison was carried out using a molar equivalent dose of acetylsalicylic acid administrated orally and with the carboxymethylcellulose placebo also only administered orally. The AST product was used in the acid form orally and in the salt form using intraperitoneal administration.
The dosages of the drugs, always proportional to one another, were varied from day to day, i.e.: the first day a dosage of 200 mg/Kg of ASA and 300 mg/Kg of AST; the second day a double dose of each; the third day a double dose of each divided into two equal components administered with a spacing of 9 hours (10 am and 7 pm respectively); the fourth day no treatment in order to check the length of the effect after the fourth administration.
The […] was injected into the paw on the night before the first treatment with the drugs and the volume of the paw was measured in hundredths of milliliter.

[6] = Antipyretic activity: pyrexia from subcutaneous yeast in the rat; assay type: in vivo; details: p.o., ASA 200, AST 300 mg/Kg
Protocol: Pyrexia from subcutaneous yeast in the rat. The AST product was administered orally in the acid from and the salt form with sodium, and by the intraperitoneal method in the salt form. It was compared with a molar equivalent dose of acetylsalicylic acid administered orally and with a carboxymethylcellulose placebo. The pyrexia was induced with a subcutaneous injection of yeast on the evening prior to the drug treatment, i.e. 16 hours before.

[7] = mouse, literature, cited from earlier work
[8] = Toxicology, oral treatment of mice for 180 days, Compound B; assay type: in vivo, mouse; details: 200 mg/kg orally
[9] = Protection against hepatic intoxication by CCl4 and cold, Compound B (BSF in blood); assay type: in vivo; details: 500 mg/kg endoperitoneal
Protocol: Oral administration of 5 ml/kg of a 20% solution of CCl4 in oil, with simultaneous endoperitoneal administration of 500 mg/kg of Compound B, was followed by exposure for 5 hours at 4° C. BSF in the blood (30 mg/kg i.v.) was tested. A comparison product, homocysteinethiolactone (OCT) was employed.
10 Animals were treated per group, and the results expressed as percentage change with respect to the controls were as shown in Table 4.

[10] = BSF bile excretion after CCl4; assay type: in vivo, rat; details: 100 mg/kg endoperitoneal 4 days, CCl4 10% 10 ml/kg
Protocol: Endoperitoneal administration to rats of 100 mg/kg of Compound B for 4 days was followed on the fourth day, one hour after the last administration, with the rats receiving 10 ml/kg orally of a 10% solution of CCl4 in oil. BSF (5 mg/kg) in the bile was tested.

[11] = Curative effect on intoxication by CCl4; assay type: in vivo, rat; details: 100 mg/kg endoperitoneal 1 h after CCl4; BSF tested after 4 hours
Protocol: Oral administration to rats of 10 ml/kg of a 10% solution of CCl4 in oil was followed with endoperitoneal administration of 100 mg/kg of Compound B after 1 hour. BSF (50 mg/kg i.v.) in the blood was tested after 4 hours. 5 Animals were used per group, and expressed as percentage change with respect to the control, the Compound B gave a reduction of -34.2.

[12] = Intoxication by CCl4 and curative treatment; assay type: in vivo; details: 100 mg/kg endoperitoneal on days 1, 2 and 3
Protocol: On the first day there was oral administration of 10 ml/kg of a 10% solution of CCl4 in oil and simultaneous endoperitoneal administration of 100 mg/kg of Compound B. On the second and third days, there was endoperitoneal administration of 100 mg/kg of Compound B, then testing of BSF (50 mg/kg i.v.) in the blood.
5 Animals were used per group, and expressed as pecentage variation with respect to the control, there was a reduction by Compound B of 16.1.

[13] = Antilipemic action, Morris, Handler or Nath diet, Compound B; assay type: in vivo, Wistar rat; details: for Bile BSF, percentage change vs control / Liver total lipids, percentage change vs control / Serum total cholesterol, percentage change vs control / Serum total lipids, percentage change vs control / Liver fresh organic weight, percentage change vs control / Serum beta-lipoproteins, percentage change vs control: 45 days, 200 mg/kg orally
Protocol: Wistar rats were treated for 45 days with a Morris diet, a Handler diet or a Nath diet. Simultaneously with the diet they received each day 200 mg/kg of Compound B or choline (except for the Nath diet) orally.

## CC(=O)Oc1ccccc1C(=O)O [ASA, acetylsalicylic acid, reference compound]
[1]
  Haemorrhagic gastric ulcers: 5 to 10
[2]; 1h
  Inhibition % of convulsions in respect of treatment with placebo: 23%
[2]; 2h
  Inhibition % of convulsions in respect of treatment with placebo: 37%
[2]; 4h
  Inhibition % of convulsions in respect of treatment with placebo: 17%
[3]; 1h
  % Inhibition of the hyperalgesia in respect of treatment with placebo: 27%
[3]; 5h
  % Inhibition of the hyperalgesia in respect of treatment with placebo: 0%
[4]; 1h
  Inhibition of the edema with respect to treatment with placebo: 41
[4]; 3h
  Inhibition of the edema with respect to treatment with placebo: 51
[4]; 5h
  Inhibition of the edema with respect to treatment with placebo: 55
[5]; 1st day, 2h after 1st dose, ASA 200, AST Ac 300 mg/Kg
  % Inhibition of the edema in respect of treatment with placebo: 8%
[5]; 1st day, 4h after 1st dose, ASA 200, AST Ac 300 mg/Kg
  % Inhibition of the edema in respect of treatment with placebo: 10%
[5]; 1st day, 8h after 1st dose, ASA 200, AST Ac 300 mg/Kg
  % Inhibition of the edema in respect of treatment with placebo: 7%
[5]; 2nd day, 2h after 2nd dose, ASA 400, AST Ac 600 mg/Kg
  % Inhibition of the edema in respect of treatment with placebo: 10%
[5]; 2nd day, 4h after 2nd dose, ASA 400, AST Ac 600 mg/Kg
  % Inhibition of the edema in respect of treatment with placebo: 11%
[5]; 2nd day, 8h after 2nd dose, ASA 400, AST Ac 600 mg/Kg
  % Inhibition of the edema in respect of treatment with placebo: 15%
[5]; 3rd day, 2h after 3rd dose, ASA 200, AST Ac 300 mg/Kg
  % Inhibition of the edema in respect of treatment with placebo: 8%
[5]; 3rd day, 4h after 3rd dose, ASA 200, AST Ac 300 mg/Kg
  % Inhibition of the edema in respect of treatment with placebo: 11%
[5]; 3rd day, 8h after 3rd dose, ASA 200, AST Ac 300 mg/Kg
  % Inhibition of the edema in respect of treatment with placebo: 14%
[5]; 4th day, 13h after 4th dose, ASA 200, AST Ac 300 mg/Kg
  % Inhibition of the edema in respect of treatment with placebo: 9%
[5]; 4th day, 17h after 4th dose, ASA 200, AST Ac 300 mg/Kg
  % Inhibition of the edema in respect of treatment with placebo: 12%
[5]; 4th day, 23h after 4th dose, ASA 200, AST Ac 300 mg/Kg
  % Inhibition of the edema in respect of treatment with placebo: 8%
[6]; 1h
  % Inhibition of the pyrexia in respect of treatment with placebo: 78%
[6]; 2h
  % Inhibition of the pyrexia in respect of treatment with placebo: 103%
[6]; 4h
  % Inhibition of the pyrexia in respect of treatment with placebo: 114%
[6]; 6h
  % Inhibition of the pyrexia in respect of treatment with placebo: 58%
[6]; 8h
  % Inhibition of the pyrexia in respect of treatment with placebo: 45%
[7]; intraperitoneal
  LD50: 420 mg/kg
[7]; oral
  LD50: 1,050 mg/kg

## COc1cc(C(=O)OCCN(CCOC(=O)c2cc(OC)c(OC)c(OC)c2)CCS(=O)(=O)O)cc(OC)c1OC [Compound B, N,N-di-[2-(3,4,5-trimethoxybenzoyloxy)ethyl]taurine]
[8]
  Mortality: No mortality occurred
[9]; test number 1
  Hepatic intoxication protection, percentage change of BSF in blood vs controls: -27.5%
[9]; test number 2
  Hepatic intoxication protection, percentage change of BSF in blood vs controls: -17.0%
[10]; 30 min.
  BSF bile excretion, percentage of excretion: 44.1%
[10]; 60 min.
  BSF bile excretion, percentage of excretion: 50.9%
[11]
  BSF in the blood, percentage change vs control (reduction): -34.2%
[12]
  BSF in the blood, percentage variation vs control (reduction): 16.1%
[13]; Handler diet, B and Choline
  Bile BSF, percentage change vs control: +23.4%
  Liver total lipids, percentage change vs control: -29.1%
  Serum total cholesterol, percentage change vs control: -7.3%
  Serum total lipids, percentage change vs control: +9.1%
[13]; Handler diet, second B column
  Liver fresh organic weight, percentage change vs control: -13.3%
[13]; Handler diet
  Liver fresh organic weight, percentage change vs control: -24.9%
  Liver total lipids, percentage change vs control: -37.7%
  Serum total cholesterol, percentage change vs control: -6.3%
  Serum total lipids, percentage change vs control: -15.9%
[13]; Morris diet
  Bile BSF, percentage change vs control: +23.8%
  Liver total lipids, percentage change vs control: -11.5%
  Serum beta-lipoproteins, percentage change vs control: -23.7%
  Serum total cholesterol, percentage change vs control: -23.2%
  Serum total lipids, percentage change vs control: -22.4%
[13]; Nath diet
  Liver total lipids, percentage change vs control: -23.4%
  Serum beta-lipoproteins, percentage change vs control: -29.7%
  Serum total cholesterol, percentage change vs control: -35.2%
  Serum total lipids, percentage change vs control: -20.6%
[13]; oral, powder with the diet
  Oral absorption (deduced from diet tests): good oral absorption
